Measurements taken from patent US8288111B2 (Abbott Laboratories, priority 2007, dated 2012).

Legend:
[1] = test system: anti-CsA monoclonal antibody; test: Abbott AxSYM CsA immunoassay (FPIA) cross-reactivity; type: binding, mouse; conditions: 200 ng/mL cyclosporine; metabolite 250 ng/mL
Procedure: (§1) Antibody. The anti-CsA monoclonal antibody used in the […]® assay is immobilized on Goat Anti-Mouse (GAM) antibody coated magnetic microparticles. The same anti-CsA antibody is used in soluble form in the Abbott TDx and AxSYM® assays (Abbott Laboratories, Abbott Park, Ill.). Soluble mouse anti-CsA antibody is added directly to GAM microparticles and non-covalent binding occurs by antibody-mediated binding. GAM antibody is passively bound to magnetic polystyrene microparticles and then treated with a water-soluble carbodiimide to fix the antibody on the particle. GAM particles can be prepared using ordinary skill in the art.
(§2) FPIA test methods. Abbott TDx Monoclonal and AxSYM® immunoassays were measured on specimens and calibrators using procedures described in the package inserts. Specimens were extracted with a combination of saponin, organic solvent and Zinc sulfate and precipitated protein was centrifuged down. The clear supernatant was tested using assay reagents (Tracer, Antibody and Assay Diluent). However, in Example 4, the different extraction (pretreatment) methods of TDx and AxSYM® were employed, but all results were generated on […]®.
Cross-reactivities for AM9 (500 ng/mL) were 12.6% for AxSYM®, 25% for CEDIA, and 6% for EMIT.

[2] = test system: cyclosporine antibody; test: Dade RxLFlex cyclosporine assay cross-reactivity; type: binding; conditions: 200 ng/mL cyclosporine; metabolite 1000 ng/mL
[3] = test system: anti-CsA monoclonal antibody; test: Abbott TDx Monoclonal CsA immunoassay (FPIA) cross-reactivity; type: binding, mouse; conditions: 200 ng/mL cyclosporine; metabolite 250 ng/mL
Procedure: as §1, §2

[4] = times greater than cyclosporine CsA; cited from earlier work

| SMILES | Abbott AxSYM cross-reactivity [1] | Dade RxLFlex cross-reactivity [2] | Abbott TDx cross-reactivity [3] | in vivo potency relative to cyclosporine CsA [4] |
| --- | --- | --- | --- | --- |
| CC[C@@H]1NC(=O)[C@H]([C@H](O)[C@H](C)C/C=C/CO)N(C)C(=O)[C@H](C(C)C)N(C)C(=O)[C@H](CC(C)C)N(C)C(=O)[C@H](CC(C)(C)O)N(C)C(=O)[C@@H](C)NC(=O)[C@H](C)NC(=O)[C@H](CC(C)C)N(C)C(=O)[C@H](C(C)C)NC(=O)[C@H](CC(C)C)N(C)C(=O)CN(C)C1=O [AM19] | not statistically significant | 2-3% | not statistically significant | – |
| C=CC[C@@H]1/C=C(\C)C[C@H](C)C[C@H](OC)[C@H]2O[C@@](O)(C(=O)C(=O)N3CCCC[C@H]3C(=O)O[C@H](/C(C)=C/[C@@H]3CC[C@@H](O)[C@H](OC)C3)[C@H](C)[C@@H](O)CC1=O)[C@H](C)C[C@@H]2OC [Tacrolimus, tacrolimus] | – | – | – | 50-100 times |
